Data from US20110172416A1, “AMIDINE DERIVATIVE” (Ajinomoto Co., Inc., priority 2008, published 2011).

Tests used:
human plasma = experiment: Measurement of anti-blood coagulant activity (aPTT measurement method); format: biochemical; conditions: negative logarithmic value of concentration at which aPTT of the control was double-extended
Protocol: The test was performed according to an aPTT measurement method using a fully-automated blood coagulation time measuring apparatus Sysmex CA-1500. In a sample tube (MS-18, Japan Medical Science) were placed DDVP solution (10 mg/ml, DDVP standard product, Wako Corporation, 4 μL), a solution (20 μL) of a test compound, and human plasma (human plasma for blood coagulation test, GCH-100A, Sysmex Corporation, 180 μL) and this was used as a test sample. The test sample (50 μL) was incubated at 37° C. for 1 min, APTT (cephalin derived from rabbit brain, DADE Behiring, 50 μL) was added, and the mixture was further incubated at 37° C. for 2 min. To the sample solution was added calcium chloride (0.02 M, 50 μL), and the time before coagulation of the plasma was automatically measured.
The anti-blood coagulation activity was shown by the negative logarithmic value of a concentration at which aPTT of the control was double-extended as paPTT2.

FXa = FXa (Homo sapiens, UniProt P00742); experiment: Measurement of activated factor X activity-inhibitory activity (chromogenic substrate S-2222); format: biochemical; conditions: negative logarithmic value of concentration suppressing reaction rate of control to 50%
FXa, sequence (P00742 235-488 limits assumed): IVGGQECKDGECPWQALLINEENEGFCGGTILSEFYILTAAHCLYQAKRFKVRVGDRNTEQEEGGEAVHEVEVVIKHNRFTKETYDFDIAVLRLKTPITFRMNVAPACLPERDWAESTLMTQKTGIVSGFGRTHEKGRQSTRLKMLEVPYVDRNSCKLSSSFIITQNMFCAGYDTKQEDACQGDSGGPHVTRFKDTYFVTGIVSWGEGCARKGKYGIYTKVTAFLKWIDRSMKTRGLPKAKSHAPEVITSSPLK
FXa, sequence (P00742 41-179 partner limits assumed): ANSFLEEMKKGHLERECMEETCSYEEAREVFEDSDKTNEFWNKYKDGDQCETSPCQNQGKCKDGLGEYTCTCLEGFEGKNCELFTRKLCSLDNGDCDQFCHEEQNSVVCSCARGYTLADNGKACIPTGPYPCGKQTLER
Protocol: (§1) Using a 96 well plate (#3396, Costar), Tris-HCl buffer (100 mM, 130 μL) containing 0.02% Tween 20, 0.1% PEG6000 and 0.2 M NaCl was blended with FXa (0.015 U/ml, 10 μL) and a test compound (10 μL) for 10 min, and a chromogenic substrate (0.2 mM, S-2222, 50 μL) was added. Using microplate reader Benchmark Plus (BIO-RAD), the reaction rate was measured from the time course changes in the absorbance at 405 nm. The reaction rate of the control was taken as 100%, and a negative logarithmic value of a concentration at which the reaction rate of the control could be suppressed to 50% was taken as the pIC50 value. The results are shown by pIC50 (FXa) in Table 2.

[1] = target: activated factor IIa (thrombin) (Homo sapiens, UniProt P00734); experiment: Measurement of activated factor II (FIIa, thrombin)-inhibitory activity (chromogenic substrate S-2238); format: biochemical; conditions: negative logarithmic value of concentration suppressing reaction rate of control to 50%
Protocol: as §1, with “activated factor IIa (thrombin, 0.125 U/mL,” for “FXa (0.015 U/ml,”, “(0.1” for “(0.2”, “S-2238,” for “S-2222,”, “of” for “in the”, “(IIa)” for “(FXa)”

[2] = Evaluation of stability in plasma; format: in vitro ADME; conditions: human plasma, 37° C., calculated from quantitative lower limit at 2 min when below quantification limit
Protocol: To human plasma (495 μL) was added a solution (5 μL) of the test compound prepared to 100 μg/mL (final drug solution concentration 1 μg/mL), and the mixture was incubated at 37° C. At 0 min, 2 min, 5 min, 10 min, 30 min and 60 min after the addition of the drug solution, 50 μL each was sampled. Acetonitrile (100 μL) was added and the mixture was admixed to discontinue the reaction. After discontinuation of the reaction, a protein elimination treatment was performed by centrifugation (15000 rpm, 5 min). The centrifugation supernatant (20 μL) was diluted with ammonium formate solution (100 mmol/L, pH 4, 180 μL), and subjected to the measurement by LC/MS/MS.
When the value at 2 min after the addition of the drug solution was less than the quantification limit, the half-life was calculated by the following method.
That is, the value at 0 min was taken as the theoretical concentration (1000 ng/mL) and the value at 2 min was taken as the quantitative lower limit concentration. The half-life (T1/2) was calculated from the inclination of the straight line connecting the logarithmic conversion values at the two points.

Row | IC50 (FXa) [µM] | IC50 [1] [µM] | half-life at 1 μg/mL [2] [s] | SMILES | paPTT2 (human plasma)
1 | 3.16 | > 100 |  | N=C(N)N1Cc2ccc(COC(=O)C3CCN(c4ccncc4)CC3)cc2C1 [compound of Ex. 8, {2-[amino(imino)methyl]-isoindolin-5-yl}methyl 1-(pyridin-4-yl)piperidine-4-carboxylate ditrifluoroacetate] | <5
2 | 0.501 | 20 |  | N=C(N)N1CCc2ccc(OC(=O)C3(COCc4ccccc4)CCN(c4ccncc4)CC3)cc2C1 [compound of Ex. 5, 2-[amino(imino)methyl]-1,2,3,4-tetrahydroisoquinolin-7-yl 4-[(benzyloxy)methyl]-1-(pyridin-4-yl)piperidine-4-carboxylate ditrifluoroacetate] | 5.4
3 | 5.01 | > 100 |  | CC(=N)N1CCC(Oc2ccc(C(=O)OCc3ccc4c(c3)CN(C(=N)N)CC4)cc2)CC1 [compound of Ex. 16, {2-[amino(imino)methyl]-1,2,3,4-tetrahydroisoquinolin-7-yl}methyl 4-{([1-(1-iminoethyl)piperidin-4-yl]oxy}benzoate ditrifluoroacetate] | 4.5
4 | 10 | > 100 |  | CC(=N)N1CCC(Oc2ccc(COC(=O)c3ccc4c(c3)CN(C(=N)N)CC4)cc2)CC1 [compound of Ex. 15, 4-{[1-(1-iminoethyl)piperidin-4-yl]oxy}benzyl 2-[amino(imino)methyl]-1,2,3,4-tetrahydroisoquinoline-7-carboxylate ditrifluoroacetate] | 4.4
5 | 0.398 | > 100 | < 23.7 | N=C(N)N1CCc2ccc(C(=O)OCC3CCN(c4ccncc4)CC3)cc2C1 [compound of Ex. 2, [1-(pyridin-4-yl)piperidin-4-yl]methyl 2-[amino(imino)methyl]-1,2,3,4-tetrahydroisoquinoline-7-carboxylate ditrifluoroacetate] | 5.4
6 | 0.0794 | 63.1 | < 23.9 | N=C(N)N1CCc2ccc(COC(=O)C3CCN(c4ccncc4)CC3)cc2C1 [compound of Ex. 3, {2-[amino(imino)methyl]-1,2,3,4-tetrahydroisoquinolin-7-yl}methyl 1-(pyridin-4-yl)piperidine-4-carboxylate ditrifluoroacetate] | 6.1
7 | 1.58 | 39.8 |  | COCC1(C(=O)Oc2ccc3c(c2)CN(C(=N)N)CC3)CCN(c2ccncc2)CC1 [compound of Ex. 6, 2-[amino(imino)methyl]-1,2,3,4-tetrahydroisoquinolin-7-yl 4-methoxymethyl-1-(pyridin-4-yl)piperidine-4-carboxylate ditrifluoroacetate] | 5.4
8 | 7.94 | > 100 |  | N=C(N)N1Cc2ccc(C(=O)OCC3CCN(c4ccncc4)CC3)cc2C1 [compound of Ex. 7, [1-(pyridin-4-yl)piperidin-4-yl]methyl 2-[amino(imino)methyl]isoindoline-5-carboxylate ditrifluoroacetate] | 4.6
